According to article PMC6821791, “Phase I Trial of Pyragrel, a Novel Thromboxane Synthetase Inhibitor, to Evaluate the Safety, Tolerability, and Pharmacokinetics in Healthy Volunteers” (Frontiers in Pharmacology, 2019):

Tests used:
[1] = parameters: method as in Morio et al., 1993; conditions: patients with ozagrel treatment; ref Morio et al., 1993; cited from earlier work
[2] = Safety assessment, adverse event monitoring (Parts I-V); format: in vivo, human
Description: Safety was assessed using subject interviews and adverse event (AE) monitoring. All subjects received laboratory examinations after termination of drug infusion for 48 or 72 h; the examination items are the same as those listed in the screening process. If clinical abnormalities were present, further follow-ups were required until the laboratory test values or vital sign levels of the abnormal items returned to normal values or stable levels. The clinical significance of abnormal laboratory test values was determined by the physicians.
The vital signs were analyzed by repeated measures analysis of variance (ANOVA), and laboratory indexes were analyzed by the paired t-test and one-way ANOVA. Comparison within different dose regimens of pyragrel or among different treatments (pyragrel, ozagrel, and placebo) or production of urinary 11-D-HTXB2 among groups was performed with the t-test, and expected values were considered along with the actual situation. Descriptive methods were used to compare the incidence of AE between pyragrel and ozagrel/placebo or in different pyragrel dose regimens; the normal/abnormal changes in laboratory examinations before and after administration were described.

[3] = dog, in vivo; cited from earlier work
[4] = Part I, controls of the 30 mg dose group (ozagrel 80 mg)
[5] = Part I, controls of the 120 mg dose group (ozagrel 80 mg)
[6] = Part I, controls of the 180 mg dose group (ozagrel 80 mg)

For `O=C(O)/C=C/c1ccc(Cn2ccnc2)cc1` [Ozagrel, Sodium ozagrel, reference compound], the “Incidence rate of severe bleeding” value [1] is given as “up to 5%”, the “Number of AEs in Part I” value ([2]; Part I, 36 pyragrel-treated subjects, 8 subjects of ozagrel treatment) is given as 3 and the “AE Type, Ozagrel/placebo” value [2, 4] is given as “DB elevation”. For the same compound, the “Number of AEs, Ozagrel/placebo” value [2, 4] was 1, the “Number of AEs, Ozagrel/placebo” value ([2]; Part I, controls of the 60 mg dose group (ozagrel 80 mg)) was 0 and the “AE Type, Ozagrel/placebo” value [2, 5] was “DB elevation”. For the same compound, the “Number of AEs, Ozagrel/placebo” value [2, 5] was 1, the “AE Type, Ozagrel/placebo” value [2, 6] was “abdominal pain” and the “Number of AEs, Ozagrel/placebo” value [2, 6] was 1. For the same compound, the “Number of AEs, Ozagrel/placebo” value ([2]; Part I, listed as of the 240 mg dose group) was 0, the “Number of AEs, Ozagrel/placebo” value ([2]; Part I, listed as of the 300 mg dose group) was 0 and the “Number of AEs, Ozagrel/placebo” value ([2]; Total) was 3. For the same compound, the “Incidence of elevation in conjugated bilirubin (DB elevation)” value ([2]; all parts, 12/68 subjects of pyragrel, 2/8 subjects of ozagrel) was 25% and the Maximum safe dose [3] was 12.5 mg/kg/day.
